Assays:
Format in all cases: cell-based
Conditions in all cases: compounds at 50 nM and 500 nM
GSPT1 = target: T1, GSPT1 (Homo sapiens, UniProt P15170+Q96SW2); experiment: Western blot degradation of GSPT1 in hPBMCs (24 h)
T1 construct: The supernatant was aspirated as the extracted total cell protein; endogenous in cells; host or cells: human peripheral blood mononuclear cells (hPBMCs)
Outline: (§1)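 Compounds were tested at 50 nM and 500 nM on hPBMCs (1×10^6 cells/mL) for 24 h, alongside DMSO. Proteins were detected by Western blot after denaturation at 95 °C; remaining protein computed from normalised band grayscale.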

IKZF1 = target: T2, IKZF1 (Homo sapiens, UniProt Q13422+Q96SW2); experiment: Western blot degradation of IKZF1 in hPBMCs (24 h)
T2 construct: The supernatant was aspirated as the extracted total cell protein; endogenous in cells; host or cells: human peripheral blood mononuclear cells (hPBMCs)
Outline: as §1

WEE1 = target: T3, WEE1 (Homo sapiens, UniProt P30291+Q96SW2); experiment: Western blot degradation of WEE1 in hPBMCs (24 h)
T3 construct: The supernatant was aspirated as the extracted total cell protein; endogenous in cells; host or cells: human peripheral blood mononuclear cells (hPBMCs)
Outline: as §1

IKZF2 = target: T4, IKZF2 (Homo sapiens, UniProt Q96SW2+Q9UKS7); experiment: Western blot degradation of IKZF2 in hPBMCs (24 h)
T4 construct: The supernatant was aspirated as the extracted total cell protein; endogenous in cells; host or cells: human peripheral blood mononuclear cells (hPBMCs)
Outline: as §1

IKZF3 = target: T5, IKZF3 (Homo sapiens, UniProt Q96SW2+Q9UKT9); experiment: Western blot degradation of IKZF3 in hPBMCs (24 h)
T5 construct: The supernatant was aspirated as the extracted total cell protein; endogenous in cells; host or cells: human peripheral blood mononuclear cells (hPBMCs)
Outline: as §1

CK1α = target: T6, CK1α (Homo sapiens, UniProt P48729+Q96SW2); experiment: Western blot degradation of CK1α in hPBMCs (24 h)
T6 construct: The supernatant was aspirated as the extracted total cell protein; endogenous in cells; host or cells: human peripheral blood mononuclear cells (hPBMCs)
Outline: as §1

T3 sequence (P30291 whole entry): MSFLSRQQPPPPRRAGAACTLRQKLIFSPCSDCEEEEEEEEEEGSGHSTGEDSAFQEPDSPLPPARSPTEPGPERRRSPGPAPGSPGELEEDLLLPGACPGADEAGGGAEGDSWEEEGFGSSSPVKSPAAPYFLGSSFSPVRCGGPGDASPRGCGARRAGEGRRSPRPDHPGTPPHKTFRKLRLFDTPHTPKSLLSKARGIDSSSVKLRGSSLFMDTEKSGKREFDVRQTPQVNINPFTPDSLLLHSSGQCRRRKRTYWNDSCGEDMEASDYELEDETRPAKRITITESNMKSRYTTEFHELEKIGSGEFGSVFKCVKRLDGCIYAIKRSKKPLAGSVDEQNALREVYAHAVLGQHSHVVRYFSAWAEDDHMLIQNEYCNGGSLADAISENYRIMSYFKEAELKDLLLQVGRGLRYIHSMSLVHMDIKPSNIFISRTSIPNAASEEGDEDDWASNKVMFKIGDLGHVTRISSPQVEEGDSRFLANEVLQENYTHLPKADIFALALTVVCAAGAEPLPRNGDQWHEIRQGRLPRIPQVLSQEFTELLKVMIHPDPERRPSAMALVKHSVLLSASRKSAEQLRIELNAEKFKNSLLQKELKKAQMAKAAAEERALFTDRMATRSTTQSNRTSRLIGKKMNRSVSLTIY
T3 sequence (Q96SW2 whole entry): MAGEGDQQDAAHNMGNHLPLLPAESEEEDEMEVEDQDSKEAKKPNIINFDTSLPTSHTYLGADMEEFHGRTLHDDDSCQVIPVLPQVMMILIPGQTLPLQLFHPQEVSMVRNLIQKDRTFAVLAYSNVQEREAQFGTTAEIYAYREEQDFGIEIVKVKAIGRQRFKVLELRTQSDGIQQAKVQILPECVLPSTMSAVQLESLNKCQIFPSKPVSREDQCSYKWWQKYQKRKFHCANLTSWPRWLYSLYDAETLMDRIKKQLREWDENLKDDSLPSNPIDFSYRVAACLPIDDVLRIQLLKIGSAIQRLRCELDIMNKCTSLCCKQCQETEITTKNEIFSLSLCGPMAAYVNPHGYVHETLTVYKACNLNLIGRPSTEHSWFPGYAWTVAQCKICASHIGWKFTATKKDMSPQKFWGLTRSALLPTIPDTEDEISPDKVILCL
T3 sequence (Q16531 whole entry partner): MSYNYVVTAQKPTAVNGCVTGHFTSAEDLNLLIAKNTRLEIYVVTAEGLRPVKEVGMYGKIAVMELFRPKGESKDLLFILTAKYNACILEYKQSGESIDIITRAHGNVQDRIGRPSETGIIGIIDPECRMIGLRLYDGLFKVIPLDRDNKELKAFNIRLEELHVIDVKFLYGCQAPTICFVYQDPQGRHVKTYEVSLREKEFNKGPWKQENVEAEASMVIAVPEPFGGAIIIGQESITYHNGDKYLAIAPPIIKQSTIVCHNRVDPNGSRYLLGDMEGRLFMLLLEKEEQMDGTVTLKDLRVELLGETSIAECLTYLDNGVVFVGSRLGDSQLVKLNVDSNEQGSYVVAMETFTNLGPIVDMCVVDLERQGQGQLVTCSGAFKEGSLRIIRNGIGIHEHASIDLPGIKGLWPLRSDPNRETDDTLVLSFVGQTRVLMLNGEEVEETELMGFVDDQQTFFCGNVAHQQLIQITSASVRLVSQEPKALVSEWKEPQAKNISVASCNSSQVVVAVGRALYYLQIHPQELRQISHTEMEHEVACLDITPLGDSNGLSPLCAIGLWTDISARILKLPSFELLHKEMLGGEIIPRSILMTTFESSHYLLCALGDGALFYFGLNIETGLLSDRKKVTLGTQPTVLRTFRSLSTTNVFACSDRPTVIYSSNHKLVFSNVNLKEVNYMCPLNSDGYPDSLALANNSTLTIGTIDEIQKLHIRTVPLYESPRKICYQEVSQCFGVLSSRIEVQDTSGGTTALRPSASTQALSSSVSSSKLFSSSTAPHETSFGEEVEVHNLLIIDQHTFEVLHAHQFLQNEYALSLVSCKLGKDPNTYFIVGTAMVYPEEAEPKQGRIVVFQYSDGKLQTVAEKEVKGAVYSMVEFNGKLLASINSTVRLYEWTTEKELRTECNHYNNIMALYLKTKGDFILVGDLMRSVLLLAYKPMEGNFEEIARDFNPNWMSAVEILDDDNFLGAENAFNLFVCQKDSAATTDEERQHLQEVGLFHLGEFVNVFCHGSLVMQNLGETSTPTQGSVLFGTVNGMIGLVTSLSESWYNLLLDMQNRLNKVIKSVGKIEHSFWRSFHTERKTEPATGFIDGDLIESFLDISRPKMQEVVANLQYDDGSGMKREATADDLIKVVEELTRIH
T1 sequence (P15170 whole entry): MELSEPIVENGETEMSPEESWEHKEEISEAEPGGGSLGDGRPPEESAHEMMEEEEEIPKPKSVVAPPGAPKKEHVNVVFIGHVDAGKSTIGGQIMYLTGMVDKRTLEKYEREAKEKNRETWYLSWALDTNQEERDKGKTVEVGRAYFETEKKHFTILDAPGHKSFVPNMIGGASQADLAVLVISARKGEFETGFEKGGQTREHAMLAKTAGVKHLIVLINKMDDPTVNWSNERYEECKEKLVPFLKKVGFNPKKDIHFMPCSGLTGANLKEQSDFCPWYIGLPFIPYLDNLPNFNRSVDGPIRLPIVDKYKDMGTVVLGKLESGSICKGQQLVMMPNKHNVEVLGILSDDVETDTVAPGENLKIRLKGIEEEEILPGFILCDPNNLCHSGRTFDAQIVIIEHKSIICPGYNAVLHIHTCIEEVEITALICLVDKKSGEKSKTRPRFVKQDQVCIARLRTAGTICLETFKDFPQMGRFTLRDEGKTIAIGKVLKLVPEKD
T1 sequence (Q96SW2 whole entry): as the sequence (Q96SW2 whole entry) above
T1 sequence (Q16531 whole entry partner): as the sequence (Q16531 whole entry partner) above
T6 sequence (P48729 whole entry): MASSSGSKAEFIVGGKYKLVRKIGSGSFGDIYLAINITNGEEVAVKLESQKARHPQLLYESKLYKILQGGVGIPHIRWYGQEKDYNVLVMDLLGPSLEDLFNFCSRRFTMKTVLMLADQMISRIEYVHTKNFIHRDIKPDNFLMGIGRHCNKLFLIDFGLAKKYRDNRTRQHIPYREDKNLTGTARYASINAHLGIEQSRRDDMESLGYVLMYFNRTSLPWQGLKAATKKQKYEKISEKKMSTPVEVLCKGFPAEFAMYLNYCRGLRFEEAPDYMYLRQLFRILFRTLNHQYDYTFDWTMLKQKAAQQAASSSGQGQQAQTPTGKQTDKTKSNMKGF
T6 sequence (Q96SW2 whole entry): as the sequence (Q96SW2 whole entry) above
T6 sequence (Q16531 whole entry partner): as the sequence (Q16531 whole entry partner) above
T2 sequence (Q13422 whole entry): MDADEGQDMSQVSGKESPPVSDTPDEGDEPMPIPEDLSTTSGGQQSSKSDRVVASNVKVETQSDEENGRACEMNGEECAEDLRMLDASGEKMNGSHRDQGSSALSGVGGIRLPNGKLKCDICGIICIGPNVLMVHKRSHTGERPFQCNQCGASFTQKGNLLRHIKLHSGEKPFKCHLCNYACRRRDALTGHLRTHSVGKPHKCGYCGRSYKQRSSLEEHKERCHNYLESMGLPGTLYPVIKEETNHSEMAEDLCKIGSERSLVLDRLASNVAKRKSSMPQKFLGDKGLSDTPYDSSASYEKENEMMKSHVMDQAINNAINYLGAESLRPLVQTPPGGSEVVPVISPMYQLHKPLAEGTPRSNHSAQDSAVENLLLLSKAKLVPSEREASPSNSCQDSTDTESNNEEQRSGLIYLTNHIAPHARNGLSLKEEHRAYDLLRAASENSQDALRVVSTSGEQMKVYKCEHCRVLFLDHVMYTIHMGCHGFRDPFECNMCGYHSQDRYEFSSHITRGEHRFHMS
T2 sequence (Q96SW2 whole entry): as the sequence (Q96SW2 whole entry) above
T2 sequence (Q16531 whole entry partner): as the sequence (Q16531 whole entry partner) above
T4 sequence (Q9UKS7 whole entry): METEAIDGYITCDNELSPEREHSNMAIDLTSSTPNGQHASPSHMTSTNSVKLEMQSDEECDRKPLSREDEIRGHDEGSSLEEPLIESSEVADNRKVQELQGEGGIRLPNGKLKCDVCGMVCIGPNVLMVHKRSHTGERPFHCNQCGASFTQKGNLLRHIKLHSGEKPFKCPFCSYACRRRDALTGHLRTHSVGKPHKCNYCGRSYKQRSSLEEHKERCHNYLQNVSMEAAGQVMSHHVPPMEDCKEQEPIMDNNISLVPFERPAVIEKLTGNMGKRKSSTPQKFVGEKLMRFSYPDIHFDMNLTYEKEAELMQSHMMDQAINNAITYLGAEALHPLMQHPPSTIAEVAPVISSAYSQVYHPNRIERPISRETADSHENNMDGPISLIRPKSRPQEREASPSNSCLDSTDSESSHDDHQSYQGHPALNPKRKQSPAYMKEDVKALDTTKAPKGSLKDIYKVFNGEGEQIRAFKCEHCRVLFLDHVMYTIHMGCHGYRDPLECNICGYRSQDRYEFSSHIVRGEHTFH
T4 sequence (Q96SW2 whole entry): as the sequence (Q96SW2 whole entry) above
T4 sequence (Q16531 whole entry partner): as the sequence (Q16531 whole entry partner) above

Compound	GSPT1 substrate protein remaining % (GSPT1)	IKZF1 substrate protein remaining % (IKZF1)	WEE1 substrate protein remaining % (WEE1)	IKZF2 substrate protein remaining % (IKZF2)	IKZF3 substrate protein remaining % (IKZF3)	CK1α substrate protein remaining % (CK1α)
O=C1CCN(N2Cc3cc(CN4CCN(c5cc(Cl)nnc5Cl)CC4)ccc3C2=O)C(=O)N1 [GT-07030, 1-(5-((4-(3,6-dichloropyridazin-4-yl)piperazin-1-yl)methyl)-1-oxoisoindolin-2-yl)dihydropyrimidine-2,4(1H,3H)-dione]	B (80%< substrate protein remaining % ≤100%)	B (80%< substrate protein remaining % ≤100%)	B (80%< substrate protein remaining % ≤100%)	A (0% ≤ substrate protein remaining % ≤80%)	B (80%< substrate protein remaining % ≤100%)	B (80%< substrate protein remaining % ≤100%)
O=C1CCN(N2Cc3cc(CN4CCN(c5ncncn5)CC4)ccc3C2=O)C(=O)N1 [GT-07031, 1-(5-((4-(1,3,5-triazin-2-yl)piperazin-1-yl)methyl)-1-oxoisoindolin-2-yl)dihydropyrimidine-2,4(1H,3H)-dione]	A (0% ≤ substrate protein remaining % ≤80%)	A (0% ≤ substrate protein remaining % ≤80%)	B (80%< substrate protein remaining % ≤100%)	B (80%< substrate protein remaining % ≤100%)	A (0% ≤ substrate protein remaining % ≤80%)	A (0% ≤ substrate protein remaining % ≤80%)
O=C1CCN(N2Cc3cc(CN4CCN(c5c(Cl)cncc5Cl)CC4)ccc3C2=O)C(=O)N1 [GT-07032, 1-(5-((4-(3,5-dichloropyridin-4-yl)piperazin-1-yl)methyl)-1-oxoisoindolin-2-yl)dihydropyrimidine-2,4(1H,3H)-dione]	A (0% ≤ substrate protein remaining % ≤80%)	B (80%< substrate protein remaining % ≤100%)	B (80%< substrate protein remaining % ≤100%)	B (80%< substrate protein remaining % ≤100%)	B (80%< substrate protein remaining % ≤100%)	B (80%< substrate protein remaining % ≤100%)
Cc1cc(N2CCN(Cc3ccc4c(c3)CN(N3CCC(=O)NC3=O)C4=O)CC2)cc(C)n1 [GT-07033, 1-(5-((4-(2,6-dimethylpyridin-4-yl)piperazin-1-yl)methyl)-1-oxoisoindolin-2-yl)dihydropyrimidine-2,4(1H,3H)-dione]	A (0% ≤ substrate protein remaining % ≤80%)	B (80%< substrate protein remaining % ≤100%)	B (80%< substrate protein remaining % ≤100%)	B (80%< substrate protein remaining % ≤100%)	B (80%< substrate protein remaining % ≤100%)	B (80%< substrate protein remaining % ≤100%)
O=C1CCN(N2C(=O)c3ccc(CN4CCN(c5ncnc(Cl)c5Cl)CC4)cc3C2=O)C(=O)N1 [GT-07034, 5-((4-(5,6-dichloropyrimidin-4-yl)piperazin-1-yl)methyl)-2-(2,4-dioxotetrahydropyrimidin-1(2H)-yl)isoindoline-1,3-dione]	A (0% ≤ substrate protein remaining % ≤80%)	A (0% ≤ substrate protein remaining % ≤80%)	A (0% ≤ substrate protein remaining % ≤80%)	A (0% ≤ substrate protein remaining % ≤80%)	A (0% ≤ substrate protein remaining % ≤80%)	A (0% ≤ substrate protein remaining % ≤80%)
O=C1CCN(N2C(=O)c3ccc(CN4CCN(c5cnnc(Cl)c5Cl)CC4)cc3C2=O)C(=O)N1 [GT-07035, 5-((4-(5,6-dichloropyridazin-4-yl)piperazin-1-yl)methyl)-2-(2,4-dioxotetrahydropyrimidin-1(2H)-yl)isoindoline-1,3-dione]	A (0% ≤ substrate protein remaining % ≤80%)	B (80%< substrate protein remaining % ≤100%)	B (80%< substrate protein remaining % ≤100%)	B (80%< substrate protein remaining % ≤100%)	A (0% ≤ substrate protein remaining % ≤80%)	A (0% ≤ substrate protein remaining % ≤80%)
O=C1CCN(N2C(=O)c3ccc(CN4CCN(c5cc(Cl)nnc5Cl)CC4)cc3C2=O)C(=O)N1 [GT-07036, 5-((4-(3,6-dichloropyridazin-4-yl)piperazin-1-yl)methyl)-2-(2,4-dioxotetrahydropyrimidin-1(2H)-yl)isoindoline-1,3-dione]	A (0% ≤ substrate protein remaining % ≤80%)	B (80%< substrate protein remaining % ≤100%)	B (80%< substrate protein remaining % ≤100%)	B (80%< substrate protein remaining % ≤100%)	B (80%< substrate protein remaining % ≤100%)	B (80%< substrate protein remaining % ≤100%)
O=C1CCN(N2C(=O)c3ccc(CN4CCN(c5ncncn5)CC4)cc3C2=O)C(=O)N1 [GT-07037, 5-((4-(1,3,5-triazin-2-yl)piperazin-1-yl)methyl)-2-(2,4-dioxotetrahydropyrimidin-1(2H)-yl)isoindoline-1,3-dione]	A (0% ≤ substrate protein remaining % ≤80%)	B (80%< substrate protein remaining % ≤100%)	B (80%< substrate protein remaining % ≤100%)	B (80%< substrate protein remaining % ≤100%)	B (80%< substrate protein remaining % ≤100%)	B (80%< substrate protein remaining % ≤100%)
O=C1CCN(N2C(=O)c3ccc(CN4CCN(c5c(Cl)cncc5Cl)CC4)cc3C2=O)C(=O)N1 [GT-07038, 5-((4-(3,5-dichloropyridin-4-yl)piperazin-1-yl)methyl)-2-(2,4-dioxotetrahydropyrimidin-1(2H)-yl)isoindoline-1,3-dione]	A (0% ≤ substrate protein remaining % ≤80%)	A (0% ≤ substrate protein remaining % ≤80%)	A (0% ≤ substrate protein remaining % ≤80%)	A (0% ≤ substrate protein remaining % ≤80%)	A (0% ≤ substrate protein remaining % ≤80%)	A (0% ≤ substrate protein remaining % ≤80%)
O=C1CCN(N2Cc3cc(CN4CCN(c5ccnc(Cl)c5F)CC4)ccc3C2=O)C(=O)N1 [GT-07069, 1-(5-((4-(2-chloro-3-fluoropyridin-4-yl)piperazin-1-yl)methyl)-1-oxoisoindolin-2-yl)dihydropyrimidine-2,4(1H,3H)-dione]	B (80%< substrate protein remaining % ≤100%)	B (80%< substrate protein remaining % ≤100%)	A (0% ≤ substrate protein remaining % ≤80%)	B (80%< substrate protein remaining % ≤100%)	B (80%< substrate protein remaining % ≤100%)	B (80%< substrate protein remaining % ≤100%)
O=C1CCN(N2C(=O)c3ccc(CN4CCN(c5ccncc5)CC4)cc3C2=O)C(=O)N1 [GT-07073, 2-(2,4-dioxotetrahydropyrimidin-1(2H)-yl)-5-((4-(pyridin-4-yl)piperazin-1-yl)methyl)isoindoline-1,3-dione]	B (80%< substrate protein remaining % ≤100%)	B (80%< substrate protein remaining % ≤100%)	A (0% ≤ substrate protein remaining % ≤80%)	B (80%< substrate protein remaining % ≤100%)	B (80%< substrate protein remaining % ≤100%)	B (80%< substrate protein remaining % ≤100%)
O=C1CCN(N2Cc3cc(CN4CCN(c5cnccn5)CC4)ccc3C2=O)C(=O)N1 [GT-07160, 1-(1-oxo-5-((4-(pyrazin-2-yl)piperazin-1-yl)methyl)isoindolin-2-yl)dihydropyrimidine-2,4(1H,3H)-dione]	A (0% ≤ substrate protein remaining % ≤80%)	B (80%< substrate protein remaining % ≤100%)	B (80%< substrate protein remaining % ≤100%)	A (0% ≤ substrate protein remaining % ≤80%)	B (80%< substrate protein remaining % ≤100%)	A (0% ≤ substrate protein remaining % ≤80%)
Cc1cc(N2CCN(Cc3ccc4c(c3)C(=O)N(N3CCC(=O)NC3=O)C4=O)CC2)ccn1 [GT-07161, 2-(2,4-dioxotetrahydropyrimidin-1(2H)-yl)-5-((4-(2-methylpyridin-4-yl)piperazin-1-yl)methyl)isoindoline-1,3-dione]	A (0% ≤ substrate protein remaining % ≤80%)	B (80%< substrate protein remaining % ≤100%)	B (80%< substrate protein remaining % ≤100%)	A (0% ≤ substrate protein remaining % ≤80%)	B (80%< substrate protein remaining % ≤100%)	B (80%< substrate protein remaining % ≤100%)

Source: patent publication US20260356819A1, “OXOISOINDOLINYL-SUBSTITUTED […] DERIVATIVE AND USE THEREOF” (GLUETACS THERAPEUTICS (SHANGHAI) CO., LTD., priority 2023, published 2026)
